Data as given in patent publication US10166218B2, “3-(1H-indol-2-yl)-1H-pyrazolo[3,4-C]pyridines and therapeutic uses thereof” (Samumed, LLC, priority 2015, dated 2019).

Columns and labels:
Type in all cases: cell-based
[1] = test system: primary human fibroblasts derived from IPF patients (LL29 cells) treated with TGF-β1; α-smooth muscle actin (αSMA); experiment: Inhibition of the fibrotic process: αSMA staining in TGF-β1 treated primary human fibroblasts from IPF patients (LL29 cells); conditions: Fibroblast, 96 h, TGF-β1 20 ng/mL, 4 days, % cells positive for αSMA
Text: Representative compounds were screened using primary human fibroblasts (derived from IPF patients) treated with TGF-β1 to determine their ability to inhibit the fibrotic process.
Primary human fibroblasts derived from IPF patients (LL29 cells) [^1Xiaoqiu Liu, et. al., “Fibrotic Lung Fibroblasts Show Blunted Inhibition by cAMP Due to Deficient cAMP Response Element-Binding Protein Phosphorylation”, Journal of Pharmacology and Experimental Therapeutics (2005), 315(2), 678-687; ^2Watts, K. L., et. al., “RhoA signaling modulates cyclin D1 expression in human lung fibroblasts; implications for idiopathic pulmonary fibrosis”, Respiratory Research (2006), 7(1), 88] were obtained from American Type Culture Collection (ATCC) and expanded in F12 medium supplemented with 15% Fetal Bovine Serum and Penicillin/Streptomycin.
Each compound was dissolved in DMSO as a 10 mM stock and used to prepare compound source plates. Serial dilution (1:2, 11-point dose-response curves from 10 μM to 1.87 nM) and compound transfer was performed using the ECHO 550 (Labcyte, Sunnyvale, Calif.) into 384-well clear bottom assay plates (Greiner Bio-One) with appropriate DMSO backfill for a final DMSO concentration of 0.1%. LL29 cells are plated at 1,500 cells/well in 80 μL/well F12 medium supplemented with 1% Fetal Bovine Serum. One hour after addition of the cells, TGF-β1 (Peprotech; 20 ng/mL) was added to the plates to induce fibrosis (ref. 1 and 2 above). Wells treated with TGF-β1 and containing DMSO were used as controls. Cells were incubated at 37° C. and 5% CO2 for 4 days. Following incubation for 4 days, SYTOX green nucleic acid stain (Life Technologies [Thermo Fisher Scientific]) was added to the wells at a final concentration of 1 μM and incubated at room temperature for 30 min. Cells were then fixed using 4% formaldehyde (Electron Microscopy Sciences), washed 3 times with PBS followed by blocking and permeabilization using 3% Bovine Serum Albumin (BSA; Sigma) and 0.3% Triton X-100 (Sigma) in PBS. Cells were then stained with antibody specific to α-smooth muscle actin (αSMA; Abcam) (ref. 1 and 2 above) in 3% Bovine Serum Albumin (BSA; Sigma) and 0.3% Triton X-100 (Sigma) in PBS, and incubated overnight at 4° C. Cells were then washed 3 times with PBS, followed by incubation with Alexa Flor-647 conjugated secondary antibody (Life Technologies [Thermo Fisher Scientific]) and DAPI at room temperature for 1 hour. Cells were then washed 3 times with PBS and plates were sealed for imaging. αSMA staining was imaged by excitation at 630 nm and emission at 665 nm and quantified using the Compartmental Analysis program on the CellInsight CX5 (Thermo Scientific). Dead or apoptotic cells were excluded from analysis based on positive SYTOX green staining. % of total cells positive for αSMA were counted in each well and normalized to the average of 11 wells treated with TGF-β1 on the same plate using Dotmatics' Studies Software. The normalized averages (fold change over untreated) of 3 replicate wells for each compound concentration were used to create dose-responses curves and EC50 values were calculated using non-linear regression curve fit in the Dotmatics' Studies Software. For EC50 of >10 μM, the percent inhibition at 10 μM is provided.

[2] = test system: Wnt activity (Sp5-Luc reporter, TCF/LEF binding sites) in SW480 colon carcinoma cells; experiment: Screening assay for Wnt activity: Sp5-Luc reporter gene assay in stably transduced SW480 cells; conditions: Homo sapiens, overnight incubation
Text: The screening assay for Wnt activity is described as follows. Reporter cell lines can be generated by stably transducing cancer cell lines (e.g., colon cancer) or primary cells (e.g., IEC-6 intestinal cells) with a lentiviral construct that includes a Wnt-responsive promoter driving expression of the firefly luciferase gene.
SW480 colon carcinoma cells were transduced with a lentiviral vector expressing luciferase with a human Sp5 promoter consisting of a sequence of eight TCF/LEF binding sites. SW480 cells stably expressing the Sp5-Luc reporter gene and a hygromycin resistance gene were selected by treatment with 150 μg/mL of hygromycin for 7 days. These stably transduced SW480 cells were expanded in cell culture and used for all further screening activities. Each compound was dissolved in DMSO as a 10 mM stock and used to prepare compound source plates. Serial dilution (1:3, 10-point dose-response curves starting from 10 μM) and compound transfer was performed using the ECHO 550 (Labcyte, Sunnyvale, Calif.) into 384-well white solid bottom assay plates (Greiner Bio-One) with appropriate DMSO backfill for a final DMSO concentration of 0.1%. For Sp5-Luc reporter gene assays, the cells were plated at 4,000 cells/well in 384-well plates with medium containing 1% fetal bovine serum and incubated overnight at 37° C. and 5% CO2. Following incubation, 20 μl of BrightGlo luminescence reagent (Promega) was added to each well of the 384-well assay plates. The plates were placed on an orbital shaker for 2 min and then luminescence was quantified using the Envision (Perkin Elmer) plate reader. Readings were normalized to DMSO only treated cells, and normalized activities were utilized for EC50 calculations using the dose-response log (inhibitor) vs. response-variable slope (four parameters) nonlinear regression feature available in GraphPad Prism 5.0 (or Dotmatics). For EC50 of >10 μM, the percent inhibition at 10 μM is provided.

SW480 colon cancer cells = experiment: Cell viability assay (CellTiter-Blue) in SW480 colon cancer cells; conditions: Homo sapiens, 96 h, four days, CellTiter-Blue
Description: Representative compounds were screened using the following assay procedure to assess the effect on cell viability as described below.
Each compound was dissolved in DMSO as a 10 mM stock and used to prepare compound source plates. Serial dilution (1:3, 8-point dose-response curves from 10 μM to 0.0045 μM) and compound transfer was performed using the ECHO 550 (Labcyte, Sunnyvale, Calif.) into 96-well clear bottom, black-walled plates (Corning-Costar).
Approximately 2×10^3 SW480 colon cancer cells were seeded into each well and allowed to incubate in the presence or absence of compound for four days at 37° C./5% CO2. Eight replicates of DMSO-treated cells served as controls and cells treated with compound were performed in duplicate.
After incubation, 20 μL of CellTiter-Blue (Promega) was added to each well allowed to incubate for approximately 3 hours. This reagent was a buffered solution which contains resazurin, metabolically active cells were able to reduce rezarurin (blue) into resorufin (pink) which was highly fluorescent. This measured fluorescence was used as a readout for cell viability.
After incubation, the plates were read at Ex 560 nm Em 590 nm (Cytation 3, BioTek). Dose-response curves were generated and EC50 concentration values were calculated using non-linear regression curve fit in the GraphPad Prism (San Diego, Calif.) or Dotmatics' Studies Software (Bishops Stortford, UK). For EC50 of >10 μM, the percent inhibition at 10 μM is provided.

IL-6 (THP-1 cells) = experiment: Inhibition of IL-6 in LPS-stimulated THP-1 human monocyte cells (HTRF); conditions: inhibition of IL-6 in LPS-stimulated THP-1 cells, HTRF, 10-point dose-response starting from 10 μM
Description: Human monocyte cell line (THP-1 cells; Catalog # TIB-202, ATCC, Manassas, Va.) were cultured in Roswell Park Memorial Institute (RPMI) 1640 Medium (Catalog #21870-100, Buffalo, N.Y.) with 1% L-glutamine, 1% HEPES, 1% Sodium Pyruvate, 2% Sodium Bicarbonate supplemented with 100 units/mL penicillin, 50 μg/mL streptomycin, 2-mercaptoethanol (0.05 mM) [basal medium] and 10% fetal bovine serum (Catalog #16140089, Life Technologies, Carlsbad, Calif.) at 37° C. and 5% CO2.
THP-1 cells were cultured in basal media with 1% FBS for 24 hours before the start of the assay. Each compound was dissolved in DMSO as a 10 mM stock and used to prepare compound source plates. Serial dilution (1:3, 10-point dose-response curves starting from 10 μM) and compound transfer was performed using the ECHO 550 (Labcyte, Sunnyvale, Calif.) into 384-well white low volume assay plates (Greiner Bio-One) with appropriate DMSO backfill for a final DMSO concentration of 0.1%. THP-1 cells were plated at 5000 cells/well in the 384-well plates and incubated at 37° C. for 2 h. 500 ng/mL of LPS was added after 2 hours and cells were incubated for another 22 hours at 37° C. Plates were spun in a centrifuge for 1 minute at […] and a mixture of anti-IL6 XL665, and anti-IL6 Cryptate diluted in reconstitution buffer (Cisbio Inc.) was added to each well. Following incubation for 3 hrs at room temperature, Homogeneous Time-Resolved Fluorescence (HTRF) was measured using the Envision (Perkin Elmer) at 665 nm and […]. The ratio of fluorescence at 665 nm to 620 nm was used as a readout for IL6 quantification. All samples were processed in duplicate. Readings were normalized to DMSO treated cells and normalized activities were utilized for EC50 calculations using the dose-response log (inhibitor) vs. response-variable slope (four parameters) nonlinear regression feature available in GraphPad Prism 5.0 (or Dotmatics). For EC50 of >10 μM, the percent inhibition at 10 μM is provided.

Compound	EC50 [1]	EC50 [2]	EC50 (SW480 colon cancer cells)	EC50 (IL-6 (THP-1 cells))
CN(C)Cc1cncc(-c2cc3c(-c4cc5c(N6CCN(C)CC6)cccc5[nH]4)n[nH]c3cn2)c1 [Compound 237, N,N-Dimethyl-1-(5-(3-(4-(4-methylpiperazin-1-yl)-1H-indol-2-yl)-1H-pyrazolo[3,4-c]pyridin-5-yl)pyridin-3-yl)methanamine]	7320 nM	3400 nM	3800 nM	3.61 µM
CCCCC(=O)Nc1cncc(-c2cc3c(-c4cc5c(N6CCN(C)CC6)cccc5[nH]4)n[nH]c3cn2)c1 [Compound 243, N-(5-(3-(4-(4-Methylpiperazin-1-yl)-H-indol-2-yl)-1H-pyrazolo[3,4-c]pyridin-5-yl)pyridin-3-yl)pentanamide]	1010 nM	1050 nM	2140 nM	3.23 µM
CN1CCN(c2cccc3[nH]c(-c4n[nH]c5cnc(-c6cncnc6)cc45)cc23)CC1 [Compound 251, 3-(4-(4-Methylpiperazin-1-yl)-1H-indol-2-yl)-5-(pyrimidin-5-yl)-1H-pyrazolo[3,4-c]pyridine]	1690 nM	1520 nM	1690 nM	1.08 µM
CC(C)CC(=O)Nc1cncc(-c2cc3c(-c4cc5ccccc5[nH]4)n[nH]c3cn2)c1 [Compound 254, N-(5-(3-(1H-Indol-2-yl)-1H-pyrazolo[3,4-c]pyridin-5-yl)pyridin-3-yl)-3-methylbutanamide]	139 nM	154 nM	1270 nM	0.2 µM
c1cncc(-c2cc3c(-c4cc5ccccc5[nH]4)n[nH]c3cn2)c1 [Compound 256, 3-(1H-Indol-2-yl)-5-(pyridin-3-yl)-1H-pyrazolo[3,4-c]pyridine]	51 nM	185 nM	2250 nM	0.056 µM
c1cc(-c2ccoc2)c2cc(-c3n[nH]c4cnc(-c5ccncc5)cc34)[nH]c2c1 [Compound 326, 3-(4-(Furan-3-yl)-1H-indol-2-yl)-5-(pyridin-4-yl)-1H-pyrazolo[3,4-c]pyridine]	1390 nM	157 nM	103 nM	5.08 µM
CCC(=O)Nc1cncc(-c2cc3c(-c4cc5c(-c6cccs6)cccc5[nH]4)n[nH]c3cn2)c1 [Compound 337, N-(5-(3-(4-(Thiophen-2-yl)-1H-indol-2-yl)-1H-pyrazolo[3,4-c]pyridin-5-yl)pyridin-3-yl)propionamide]	387 nM	911 nM	3420 nM	7.12 µM
CN(C)c1cncc(-c2cc3c(-c4cc5c(-c6cccs6)cccc5[nH]4)n[nH]c3cn2)c1 [Compound 343, N,N-Dimethyl-5-(3-(4-(thiophen-2-yl)-1H-indol-2-yl)-1H-pyrazolo[3,4-c]pyridin-5-yl)pyridin-3-amine]	134 nM	1130 nM	696 nM	7.75 µM
CCCC(=O)Nc1cncc(-c2cc3c(-c4cc5c(-c6cccs6)cccc5[nH]4)n[nH]c3cn2)c1 [Compound 353, N-(5-(3-(4-(Thiophen-2-yl)-1H-indol-2-yl)-1H-pyrazolo[3,4-c]pyridin-5-yl)pyridin-3-yl)butyramide]	56 nM	4910 nM	4010 nM	1.89 µM
c1ccc(CNCc2cncc(-c3cc4c(-c5cc6c(-c7cccs7)cccc6[nH]5)n[nH]c4cn3)c2)cc1 [Compound 360, N-Benzyl-1-(5-(3-(4-(thiophen-2-yl)-1H-indol-2-yl)-1H-pyrazolo[3,4-c]pyridin-5-yl)pyridin-3-yl)methanamine]	373 nM	1780 nM	3470 nM	1.43 µM
CN(C)CCNc1cc(F)cc(-c2cccc3[nH]c(-c4n[nH]c5cnc(-c6cncc(NC(=O)Cc7ccccc7)c6)cc45)cc23)c1 [Compound 458, N-(5-(3-(4-(3-((2-(Dimethylamino)ethyl)amino)-5-fluorophenyl)-1H-indol-2-yl)-1H-pyrazolo[3,4-c]pyridin-5-yl)pyridin-3-yl)-2-phenylacetamide]	2840 nM	3590 nM	4550 nM	3.3 µM
